Results as given in patent US20060211651A1, “Persulfated oligosaccharide acting on selectins and chemokine” (Taisho Pharmaceutical Co., Ltd., priority 2002, published 2006).

Columns and labels:
[1] = target: T1, monomeric L-selectin (Homo sapiens, UniProt P14151); experiment: BIAcore surface plasmon resonance, immobilized glycosaminoglycan vs monomeric L-selectin; type: binding; details: for Kd / koff / kon: L-selectin, GAG immobilized, 25° C.; for interaction with immobilized glycosaminoglycan (sensorgram): monomeric L-selectin
T1 construct: purchased Genzyme-Techne
T1 sequence (P14151 39-332 limits assumed): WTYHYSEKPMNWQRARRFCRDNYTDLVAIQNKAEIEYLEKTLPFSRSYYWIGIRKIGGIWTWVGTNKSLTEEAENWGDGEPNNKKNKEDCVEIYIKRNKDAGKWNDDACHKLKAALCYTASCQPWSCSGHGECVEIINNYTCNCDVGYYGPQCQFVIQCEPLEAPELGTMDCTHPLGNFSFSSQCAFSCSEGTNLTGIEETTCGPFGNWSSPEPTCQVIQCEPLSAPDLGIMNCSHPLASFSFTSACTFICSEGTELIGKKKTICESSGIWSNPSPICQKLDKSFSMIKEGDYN
Protocol: Affinity kinetics of the interaction between various CS/DS chains and each of L-selectin, P-selectin, CD44 and chemokine were examined by surface plasmon resonance using BIAcore™ biosensor [manufactured by BIAcore AB].
All experiments were performed at 25° C. At stages of washing and dissociation, buffer C (20 mM HEPES-NaOH, 0.15M NaCl, 1 mM CaCl2, 1 mM MgCl2, pH6.8) was used as a running buffer.
First, about 1.8 to 2.0 kiloresonance unit (1 kiloresonance unit=1 ng/mm^2) of streptavidin were covalently immobilized onto B1 sensor chip via a primary amine group using an amine coupling kit [manufactured by Amercham-Bioscience] according to the instruction provided by the manufacturer. The remaining activated groups were blocked with 150 μl of 1M ethanolamine-HCl (pH8.5). Then, each glycosaminoglycan which had been biotinylated at a reducing end was injected to a sensor tip surface by using EZ-link™ biotin-LC-hydrazide [manufactured by Pierce] so as to obtain about 150 resonance unit of an immobilization level, according to the method of Sadir et al. [J. Biol. Chem., 276, 8288-8296 (2001); all teachings of which are hereby incorporated by reference].
Binding assay was performed by injecting continuously each of various concentrations of secondary lymphoid tissue chemokine, γ-interferon inducible protein-10, stromal cell-derived factor-1β, monomeric L-selectin [manufactured by Genzyme-Techne], monomeric P-selectin [manufactured by Genzyme-Techne] and monomeric CD44, to a glycosaminoglycan-coupled sensor tip at a flow rate of 30 μl/min for 0 to 90 seconds, and then injecting a running buffer thereto. A response in resonance unit was recorded as a function of a time.
A sensor tip surface was regenerated with 300 μl of 1 M NaCl when chemokine or CD44 was used, or regenerated with 300 μl of 1 M NaCl, and additional 100 μl of 50 mM EDTA (pH8.0), when selectin was used. As a result of regeneration of a sensor tip surface, a remarkable change in a baseline was not observed.
An affinity kinetic parameter was determined by BIAevaluation 3.0 software [manufactured by Pharmacia Biosensor] using a single site binding model. […] In FIG. 6 and Table 3, SLC denotes secondary lymphoid tissue chemokin, IP-10 denotes γ-interferon inducible protein-10, SDF-1β denotes stromal cell-derived factor-1β, CS E denotes chondroitin sulfate E, and CS A denotes chondroitin sulfate A. In addition, in Table 3, Kd value for the interaction between monomeric CD44 and chondroitin sulfate E is a value calculated from a binding amount at equilibrium, and Kd value of the interaction between CD44 and hyaluronic acid is a value calculated using CD44-Ig.

[2] = target: T2, L-selectin-Ig (Homo sapiens, UniProt P14151); experiment: Binding inhibition assay (ELISA), biotinylated versican to L-selectin-Ig, various concentrations; details: dose-dependent, FIG. 2 panel A
T2 construct: purchased R & D Systems Inc
T2 sequence (P14151 with tags, fused parts or gaps limits assumed): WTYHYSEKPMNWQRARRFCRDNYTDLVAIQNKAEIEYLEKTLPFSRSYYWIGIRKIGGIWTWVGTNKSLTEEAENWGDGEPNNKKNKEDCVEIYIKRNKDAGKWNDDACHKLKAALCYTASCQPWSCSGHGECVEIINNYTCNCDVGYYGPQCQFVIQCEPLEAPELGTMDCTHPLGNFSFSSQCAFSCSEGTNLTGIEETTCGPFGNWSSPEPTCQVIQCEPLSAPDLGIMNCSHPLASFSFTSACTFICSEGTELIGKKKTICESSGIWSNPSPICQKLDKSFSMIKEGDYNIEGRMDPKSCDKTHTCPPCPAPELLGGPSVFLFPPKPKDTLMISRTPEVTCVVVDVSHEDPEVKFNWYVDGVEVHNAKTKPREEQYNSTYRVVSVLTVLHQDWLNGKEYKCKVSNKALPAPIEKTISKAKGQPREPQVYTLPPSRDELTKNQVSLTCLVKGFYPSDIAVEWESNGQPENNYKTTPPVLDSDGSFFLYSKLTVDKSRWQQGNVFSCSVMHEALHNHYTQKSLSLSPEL

[3] = target: γ-interferon inducible protein-10 (Homo sapiens, UniProt P02778); experiment: ELISA, biotinylated versican binding to IP-10 in presence of glycosaminoglycan; details: 100 μg/ml glycosaminoglycan; FIG. 5
γ-interferon inducible protein-10, sequence (P02778 22-98): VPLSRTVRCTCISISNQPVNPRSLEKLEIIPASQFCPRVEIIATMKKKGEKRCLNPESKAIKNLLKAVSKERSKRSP
Protocol: (§1) A well of a 96 well flat bottom microtiter plate was coated with BSA (5 μg/ml), anti-versican monoclonal antibody 2B1 (5 μg/ml), CD44-Ig (7 μg/ml), L-selectin-Ig (3 μg/ml), P-selectin-Ig (3 μg/ml) or chemokine (1 μg/ml), and then blocked with a phosphate buffered physiological saline containing 3% by weight of BSA. As the above chemokine, secondary lymphoid tissue chemokine, γ-interferon inducible protein-10, platelet factor 4, stromal cell-derived factor-1β [manufactured by Pepro Tech] and stromal cell-derived factor-1α [manufactured by Pepro Tech] were used.
(§2) Thereafter, the plate was washed with the buffer A, and enzyme-linked immunosorbent assay was performed in the same manner as that of the previous report [Kawashima, H. et al., J. Biol. Chem., 275, 35448-35456 (2000)]. Binding was determined by measuring absorbance at 620 nm using alkaline phosphatase-conjugated streptavidin and Blue Phos™ substrate. In FIG. 5, expression of an abscissa axis is the same as that of FIG. 4.

[4] = target: T3, platelet factor 4 (Homo sapiens, UniProt P02776); experiment: ELISA, biotinylated versican binding to PF4 in presence of glycosaminoglycan; details: 100 μg/ml glycosaminoglycan; FIG. 5
T3 sequence (P02776 32-101): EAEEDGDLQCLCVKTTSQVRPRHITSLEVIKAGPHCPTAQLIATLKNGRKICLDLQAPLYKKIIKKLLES
Protocol: as §1, §2

[5] = target: T2, L-selectin-Ig; experiment: ELISA, biotinylated versican binding to L-selectin-Ig in presence of glycosaminoglycan; details: 100 μg/ml glycosaminoglycan; FIG. 5
Protocol: as §1, §2

[6] = system: P-selectin-Ig; experiment: ELISA, biotinylated versican binding to P-selectin-Ig in presence of glycosaminoglycan; details: 100 μg/ml glycosaminoglycan; FIG. 5
Protocol: as §1, §2

| Substance | Kd [1] [µM] | koff [1] [s⁻¹] | kon [1] [M⁻¹ s⁻¹] | interaction with immobilized glycosaminoglycan (sensorgram) [1] | inhibition of binding between biotinylated versican and L-selectin-Ig [2] | inhibition of binding between biotinylated versican and γ-interferon inducible protein-10 [3] | inhibition of binding between biotinylated versican and platelet factor 4 [4] | inhibition of binding between biotinylated versican and L-selectin [5] | inhibition of binding between biotinylated versican and P-selectin [6] |
| --- | --- | --- | --- | --- | --- | --- | --- | --- | --- |
| chondroitin sulfate E [CS E] | 0.0212 | 0.000439 | 20700 | bound | inhibited | inhibited | inhibited | inhibited | inhibited |
| chondroitin sulfate A [CS A] | – | – | – | did not interact | not inhibited | – | – | – | – |
| dermatan polysulfate [DPS] | – | 0.000289 | 13700 | – | inhibited | inhibited | inhibited | inhibited | inhibited |
| chondroitin polysulfate [CPS] | 0.0477 | 0.000366 | 7680 | – | inhibited | inhibited | inhibited | inhibited | inhibited |
